Experimental data taken from US6271242A, “Method for treating cancer using a tyrosine protein kinase inhibitor” (Bristol-Myers Squibb Co., priority 1992, dated 2001).
“Also recorded” adds a separate entry of the source.

Experiments:
[1] = tested on: NIH3T3 cells co-transfected with pFRK44 (gp145^trkB) and pLL42 (BDNF); experiment: Focus formation of NIH3T3 cells co-transfected with gp145^trkB and BDNF plasmids; type: cell-based; conditions: 100 nM K252a
PDGF receptor = experiment: PDGF-induced tyrosine phosphorylation of PDGF receptor in NIH3T3 cells (Western blot); type: cell-based; conditions: 100 nM K252a, 100 ng/ml PDGF
pp60^v-src [2] = experiment: Tyrosine phosphorylation of pp60^v-src in C74-321 cells (Western blot); type: cell-based; conditions: concentrations as high as 1 μM
[3] = Morphology and toxicity, v-fms-transformed NIH3T3 cells; type: cell-based; conditions: mouse, v-fms transformed nih3t3 cells; v-fms transformed cells, no signs of morphologic reversion; data not shown; read-out: concentration at which toxic effect appears
C51-642 cells = experiment: as above; type: cell-based
Z82-432 cells = experiment: Reversion of transformed phenotype, gp145^trkB + BDNF transformed NIH3T3 cells; type: cell-based
PC12 cells [4] = experiment: NGF-induced neuronal differentiation (neurite outgrowth) of PC12 cells; type: cell-based; conditions: Rattus norvegicus, PC-12, 72 h; 50 ng/ml NGF, three days; read-out: IC50, block of appearance of neuritic processes in PC12 cells exposed to NGF
gp140^trk = type: cell-based, rat; conditions: 100 nM K252a, 100 ng/ml NGF, PC12 cells
PC12 cells [5] = experiment: Proliferation of PC12 cells; type: cell-based, rat; conditions: submicromolar concentrations; data not shown
Z99-541 cells = experiment: Reversion of transformed phenotype, gp140^trk + NGF transformed NIH3T3 cells; type: cell-based
106-632 cells = experiment: Reversion of morphologic transformation, trk-transformed NIH3T3 cells; type: cell-based; conditions: 100 nM K252a, as little as 36 hours
[6] = tested on: NIH3T3 cells co-transfected with pDM69 (gp140^trk) and pLTRSNGF (NGF); experiment: Focus formation of NIH3T3 cells co-transfected with gp140^trk and NGF plasmids; type: cell-based; conditions: 100 nM K252a
C74-321 cells = experiment: Morphology and toxicity, v-src-transformed NIH3T3 cells; type: cell-based
[7] = as above; type: cell-based; conditions: mouse, v-src transformed nih3t3 cells; v-src transformed cells, no signs of morphologic reversion; data not shown; read-out: concentration at which toxic effect appears
pp60^v-src [8] = experiment: In vitro tyrosine protein kinase assay of pp60^v-src immunoprecipitates (C74-321 cells); type: biochemical; conditions: concentrations as high as 10 μM
PC12 cells [9] = experiment: FGF-induced neurite formation of PC12 cells; type: cell-based, rat; conditions: concentrations as high as 300 nM; 50 ng/ml acidic and basic FGFs, three days
gp145^trkB = experiment: BDNF-induced tyrosine phosphorylation of gp145^trkB in Z52-17 cells (Western blot); type: cell-based; conditions: 100 nM K252a, 100 ng/ml BDNF
[10] = tested on: NIH3T3 cells co-transfected with pFL20 (gp145^trkC) and pLL43 (NT-3); experiment: Focus formation of NIH3T3 cells co-transfected with gp145^trkC and NT-3 plasmids; type: cell-based; conditions: 100 nM K252a; pFL20 (gp145^trkC) + pLL43 (NT-3)
B38-941 cells = experiment: Reversion of morphologic transformation, trk5-transformed NIH3T3 cells; type: cell-based; conditions: 100 nM K252a, as little as 36 hours
NIH3T3 cells = experiment: Toxicity and growth of untransfected NIH3T3 and NIH3T3-derived cells
gp145^trkC = experiment: NT-3-induced tyrosine phosphorylation of gp145^trkC in R4-31 cells (Western blot); type: cell-based; conditions: 100 nM K252a, 100 ng/ml NT-3, R4-31 (RA-31) cells
Z82-711 cells = experiment: Reversion of transformed phenotype, gp145^trkC + NT-3 transformed NIH3T3 cells; type: cell-based
human EGF receptor = experiment: EGF-induced tyrosine phosphorylation of EGF receptor in F19-91 cells (Western blot); type: cell-based; conditions: 100 nM K252a, 100 ng/ml EGF

For `COC(=O)[C@@]1(O)C[C@H]2O[C@]1(C)n1c3ccccc3c3c4c(c5c6ccccc6n2c5c31)C(=O)NC4` (single isomer, unassigned) [K252a, (8R*,9S*,11S*)-(-)-9-hydroxy-9-methoxycarbonyl-8-methyl-2,3,9,10-tetrahydro-8,11-epoxy-1H,8H,11H-2,7b,11a-triazadibenzo(a,g) cycloocta(c,d,e)triinden-1-one], the “Transforming Activity” value [1] was 0 Foci per 10^5 cells, the “phosphorylation on tyrosine residues of the PDGF receptor” value (PDGF receptor) was “no effect” and the “inhibitory effect on levels of tyrosine phosphorylation of pp60^v-src” value (pp60^v-src [2]) was “did not have any inhibitory effect”. For the same compound, the MCC [3] was roughly 1000 nM, the “effect on morphology of v-fms transformed cells” value (C51-642 cells) was “no effect” and the “effect on transformed phenotype of v-fms cells” value (C51-642 cells; concentrations as high as 1 μM) was “no effect”. For the same compound, the “reversion of transformed phenotype” value (Z82-432 cells; 30 nM K252a, data not shown) was “much more limited effect”, the “reversion of transformed phenotype” value (Z82-432 cells; 100 nM K252a, 2 to 4 days) was “completely reverted” and the IC50 (PC12 cells [4]) was roughly 40 nM. For the same compound, the “NGF-induced phosphorylation of gp140^trk on tyrosine residues” value (gp140^trk) was “completely abolished”, the “inhibitory effect on proliferation of PC12 cells” value (PC12 cells [5]) was “did not have a significant inhibitory effect” and the “reversion of transformed phenotype” value (Z99-541 cells; 30 nM K252a, data not shown) was “much more limited effect”. The “reversion of transformed phenotype” value (Z99-541 cells; 100 nM K252a, 2 to 4 days) was “completely reverted”, the “reversion of transformed phenotype” value (106-632 cells) was “completely reverted” and the “Transforming Activity” value [6] was 0 Foci per 10^5 cells. The “effect on morphology of v-src transformed cells” value (C74-321 cells) was “no effect”, the “effect on transformed phenotype of v-src cells” value (C74-321 cells; concentrations as high as 1 μM) was “no effect” and the MCC [7] was roughly 1000 nM. For the same compound, the “inhibitory effect on catalytic activity of pp60^v-src” value (pp60^v-src [8]) was “did not have any significant inhibitory effect”, the “effect on induction of neurite formation by FGF” value (PC12 cells [9]) was “no detectable effect” and the “phosphorylation on tyrosine residues of ligand-activated gp145^trkB” value (gp145^trkB) was “completely abolished”. For the same compound, the “Transforming Activity” value [10] was 0 Foci per 10^5 cells, the “reversion of transformed phenotype” value (B38-941 cells) was “completely reverted” and the “effect on growth properties / proliferation rate of the cells” value (NIH3T3 cells; 300 nM or lower) was “not observed; also recorded: no significant effect”. The detectable toxic effects (NIH3T3 cells; concentrations as high as 300 nM, NIH3T3-derived cells) was “nor elicit any detectable toxic effects”, the toxicity to cells (NIH3T3 cells; micromolar concentrations, particularly untransfected NIH3T3 cells, data not shown) was “considerably toxic” and the “phosphorylation on tyrosine residues of ligand-activated gp145^trkC” value (gp145^trkC) was “completely abolished”. The “reversion of transformed phenotype” value (Z82-711 cells; 30 nM K252a, data not shown) was “much more limited effect”, the “reversion of transformed phenotype” value (Z82-711 cells; 100 nM K252a, 2 to 4 days) was “completely reverted” and the “phosphorylation on tyrosine residues of the EGF receptor” value (human EGF receptor) was “no effect”.
